Source: publication PMC5063900, “A phase 1 study of the safety, tolerability, pharmacokinetics, and pharmacodynamics of TAK-063, a selective PDE10A inhibitor” (Psychopharmacology, 2016)

Assay: Treatment-emergent adverse events, phase 1 single-rising-dose study in healthy subjects
Assay type: in vivo, human
Procedure: Healthy Japanese and non-Japanese subjects between 18 and 55 years of age were recruited to participate in the study. Criteria for exclusion included prior treatment with any investigational compound within 30 days of the first TAK-063 dose, a positive test for drugs of abuse or nicotine, and an increased risk for suicide. […] Following a washout period of 7 days, subjects in cohort 3 (100 mg) received the same dose (100 mg) but under fed conditions.
The study assessed safety and tolerability in all subjects for the 4-day study duration. The primary endpoints were the percentage of subjects who experienced at least one treatment-emergent adverse event (TEAE), as well as the percentage of subjects who met predefined criteria for safety laboratory tests, vital sign measurements, and safety parameters following TAK-063 administration. The secondary endpoints were PK parameters for TAK-063 and M-I, assessing drug exposure at each dose, and the effect of food coadministration on TAK-063 PK. Exploratory endpoints included the effects of TAK-063 on domains of cognition as assessed by a computerized battery, CNS Vital Signs (CNSVS).
Adverse events, clinical laboratory tests, vital signs, 12-lead electrocardiograms (ECGs), and Columbia-Suicide Severity Rating Scale (C-SSRS) were all monitored. Intensity of AEs was classified as mild, moderate, or severe, and each AE was classified as to its relation to study drug.
Laboratory tests evaluated hematology, serum chemistry, urine, and hormone levels. Vital signs and ECGs were collected at screening, check-in, within 1 h predose, serially postdose, and at study exit, while the C-SSRS was administered at screening, check-in, and study exit. Any events reported on the C-SSRS and clinically significant laboratory abnormalities were reported as AEs.

[1] = Japanese subjects, TAK-063 Total (n = 30)
[2] = Japanese subjects, single 3 mg dose (n = 5)
[3] = Japanese subjects, single 10 mg dose (n = 5)
[4] = Japanese subjects, single 30 mg dose (n = 5)
[5] = Japanese subjects, single 100 mg dose (n = 5)
[6] = Japanese subjects, single 300 mg dose (n = 5)
[7] = Japanese subjects, single 1000 mg dose (n = 5)
[8] = all TAK-063-treated subjects, all cohorts
[9] = all subjects, TAK-063 Total (n = 66)
[10] = all subjects, single 3 mg dose (n = 11)
[11] = all subjects, single 10 mg dose (n = 11)
[12] = all subjects, single 30 mg dose (n = 11)

## COc1cn(-c2ccc(-n3cccn3)cc2F)nc(-c2ccnn2-c2ccccc2)c1=O [TAK-063]
300 mg
  Severe AE: orthostatic hypotension, number of subjects: 1
1000 mg
  Severe AE: somnolence, number of subjects: 2
55/63 AEs
  AEs of mild intensity: 87.3%
Japanese subjects treated with TAK-063
  Total incidence of TEAEs: 43.3%
[1]
  Adverse event: Dizziness: 1 (3.3) n (%)
  Adverse event: Epistaxis: 1 (3.3) n (%)
  Adverse event: Headache: 1 (3.3) n (%)
  Adverse event: Muscle tightness: 1 (3.3) n (%)
  Adverse event: Nausea: 1 (3.3) n (%)
  Adverse event: Orthostatic hypotension: 4 (13.3) n (%)
  Adverse event: Orthostatic tachycardia: 5 (16.7) n (%)
  Adverse event: Somnolence: 10 (33.3) n (%)
  Adverse event: Vomiting: 2 (6.7) n (%)
[2]
  Adverse event: Dizziness: 0 n (%)
  Adverse event: Epistaxis: 0 n (%)
  Adverse event: Headache: 0 n (%)
  Adverse event: Muscle tightness: 0 n (%)
  Adverse event: Nausea: 0 n (%)
  Adverse event: Orthostatic hypotension: 0 n (%)
  Adverse event: Orthostatic tachycardia: 0 n (%)
  Adverse event: Somnolence: 0 n (%)
  Adverse event: Vomiting: 0 n (%)
[3]
  Adverse event: Dizziness: 0 n (%)
  Adverse event: Epistaxis: 0 n (%)
  Adverse event: Headache: 0 n (%)
  Adverse event: Muscle tightness: 0 n (%)
  Adverse event: Nausea: 0 n (%)
  Adverse event: Orthostatic hypotension: 0 n (%)
  Adverse event: Orthostatic tachycardia: 0 n (%)
  Adverse event: Somnolence: 0 n (%)
  Adverse event: Vomiting: 0 n (%)
[4]
  Adverse event: Dizziness: 0 n (%)
  Adverse event: Epistaxis: 1 (20.0) n (%)
  Adverse event: Headache: 0 n (%)
  Adverse event: Muscle tightness: 1 (20.0) n (%)
  Adverse event: Nausea: 0 n (%)
  Adverse event: Orthostatic hypotension: 0 n (%)
  Adverse event: Orthostatic tachycardia: 1 (20.0) n (%)
  Adverse event: Somnolence: 1 (20.0) n (%)
  Adverse event: Vomiting: 0 n (%)
[5]
  Adverse event: Dizziness: 0 n (%)
  Adverse event: Epistaxis: 0 n (%)
  Adverse event: Headache: 1 (20.0) n (%)
  Adverse event: Muscle tightness: 0 n (%)
  Adverse event: Nausea: 0 n (%)
  Adverse event: Orthostatic hypotension: 1 (20.0) n (%)
  Adverse event: Orthostatic tachycardia: 0 n (%)
  Adverse event: Somnolence: 4 (80.0) n (%)
  Adverse event: Vomiting: 1(20.0) n (%)
[6]
  Adverse event: Dizziness: 0 n (%)
  Adverse event: Epistaxis: 0 n (%)
  Adverse event: Headache: 0 n (%)
  Adverse event: Muscle tightness: 0 n (%)
  Adverse event: Nausea: 0 n (%)
  Adverse event: Orthostatic hypotension: 1 (20.0) n (%)
  Adverse event: Orthostatic tachycardia: 1 (20.0) n (%)
  Adverse event: Somnolence: 2 (40.0) n (%)
  Adverse event: Vomiting: 0 n (%)
[7]
  Adverse event: Dizziness: 1 (20.0) n (%)
  Adverse event: Epistaxis: 0 n (%)
  Adverse event: Headache: 0 n (%)
  Adverse event: Muscle tightness: 0 n (%)
  Adverse event: Nausea: 1 (20.0) n (%)
  Adverse event: Orthostatic hypotension: 2 (40.0) n (%)
  Adverse event: Orthostatic tachycardia: 3 (60.0) n (%)
  Adverse event: Somnolence: 3 (60.0) n (%)
  Adverse event: Vomiting: 1 (20.0) n (%)
Across all cohorts
  Subjects experiencing drug-related AEs: 32 of 66
  Total number of drug-related AEs: 57
[8]
  Drug-related AE: orthostatic hypotension, incidence: 10.6%
  Drug-related AE: orthostatic tachycardia, incidence: 19.7%
  Drug-related AE: somnolence, incidence: 33.3%
[9]
  Adverse event: Anxiety: 1 (1.5) n (%)
  Adverse event: Blurred vision: 1 (1.5) n (%)
  Adverse event: Dizziness: 3 (4.5) n (%)
  Adverse event: Dysarthria: 1(1.5) n (%)
  Adverse event: Epistaxis: 1 (1.5) n (%)
  Adverse event: Headache: 2 (3.0) n (%)
  Adverse event: Hypotension: 1 (1.5) n (%)
  Adverse event: Muscle tightness: 1 (1.5) n (%)
  Adverse event: Nausea: 3 (4.5) n (%)
  Adverse event: Orthostatic hypotension: 7 (10.6) n (%)
  Adverse event: Orthostatic tachycardia: 13 (19.7) n (%)
  Adverse event: Somnolence: 22 (33.3) n (%)
  Adverse event: Vomiting: 3 (4.5) n (%)
[10]
  Adverse event: Anxiety: 0 n (%)
  Adverse event: Blurred vision: 0 n (%)
  Adverse event: Dizziness: 0 n (%)
  Adverse event: Dysarthria: 0 n (%)
  Adverse event: Epistaxis: 0 n (%)
  Adverse event: Headache: 0 n (%)
  Adverse event: Hypotension: 0 n (%)
  Adverse event: Muscle tightness: 0 n (%)
  Adverse event: Nausea: 0 n (%)
  Adverse event: Orthostatic hypotension: 0 n (%)
  Adverse event: Orthostatic tachycardia: 2 (18.2) n (%)
  Adverse event: Somnolence: 0 n (%)
  Adverse event: Vomiting: 0 n (%)
[11]
  Adverse event: Anxiety: 0 n (%)
  Adverse event: Blurred vision: 0 n (%)
  Adverse event: Dizziness: 0 n (%)
  Adverse event: Dysarthria: 0 n (%)
  Adverse event: Epistaxis: 0 n (%)
  Adverse event: Headache: 0 n (%)
  Adverse event: Hypotension: 0 n (%)
  Adverse event: Muscle tightness: 0 n (%)
  Adverse event: Nausea: 0 n (%)
  Adverse event: Orthostatic hypotension: 0 n (%)
  Adverse event: Orthostatic tachycardia: 0 n (%)
  Adverse event: Somnolence: 0 n (%)
  Adverse event: Vomiting: 0 n (%)
[12]
  Adverse event: Anxiety: 0 n (%)
  Adverse event: Blurred vision: 0 n (%)
  Adverse event: Dizziness: 1 (9.1) n (%)
  Adverse event: Dysarthria: 0 n (%)
  Adverse event: Epistaxis: 1 (9.1) n (%)
  Adverse event: Headache: 0 n (%)
  Adverse event: Hypotension: 0 n (%)
  Adverse event: Muscle tightness: 1 (9.1) n (%)
  Adverse event: Nausea: 2 (18.2) n (%)
  Adverse event: Orthostatic hypotension: 0 n (%)
  Adverse event: Orthostatic tachycardia: 1 (9.1) n (%)
